# Measurements published in paper PMC4264192, “Synthesis and Biological Evaluation of 2-Thioxopyrimidin-4(1H)-one Derivatives as Potential Non-Nucleoside HIV-1 Reverse Transcriptase Inhibitors” (International Journal of Molecular Sciences, 2014).
# Read-outs that look alike come from different tables or passages of the source.
# Columns and labels:
# [1] = Cytotoxic effect in uninfected MT-4 cultures; assay type: cell-based; conditions: human, uninfected MT-4 cells; read-out: CC50, 50% cytotoxic concentration
# HIV-1 = assay: Inhibition of HIV-1 replication in MT-4 cells (HIV-1 antigen ELISA or MTT); assay type: cell-based, human immunodeficiency virus type 1; conditions: for IC50: Human immunodeficiency virus 1, MT4, 144 h, read-out: IC50, 50% inhibitory concentration (anti-HIV-1 activity); for Selectivity index (SI), CC50/IC50 / activity against HIV-1 replication (in words): MT-4 cells; for Selectivity index (SI), CC50/IC50: ratio CC50/IC50; for activity against HIV-1 replication (in words): less than 30% reduction of HIV expression considered without biological activity; for EC50: Human immunodeficiency virus 1, MT4, read-out: EC50 against wild-type HIV-1
# From the text: Compounds mediating less than 30% reduction of HIV expression were considered without biological activity.
# [2] = HIV-1 in MT-4 cells, six days, 0.005 MOI
SMILES,CC50 at 6 days [1] [µM],IC50 (HIV-1; [2]) [µM],"Selectivity index (SI), CC50/IC50 (HIV-1)",melting point [°C],other results
"Cc1cn([C@H]2C[C@H](N=[N+]=[N-])[C@@H](CO)O2)c(=O)[nH]c1=O [AZT, azidothymidine, reference compound]",52,0.04,"1,300",,
"C=CCc1c(Cc2ccccc2)nc(SC)[nH]c1=O [Compound 2a, 5-Allyl 6-(benzyl)-2-(methylthio)pyrimidin-4(3H)-one]",> 100,26.8,>3,214 to 216,
"C=CCc1c(Cc2ccccc2)nc(SCCO)[nH]c1=O [Compound 2b, 2-(2-Hydroxyethylthio)-5-allyl-6-benzylpyrimidin-4(3H)-one]",,,,164 to 166,
"C=CCc1c(Cc2ccccc2)nc(SCCCBr)[nH]c1=O [Compound 2c, 2-(3-Bromopropylthio)-5-allyl-6-benzylpyrimidin-4(3H)-one]",,,,138 to 140,activity against HIV-1 replication (in words) (HIV-1): inactive
"C=CCc1c(Cc2ccccc2)nc(SCCCCCC)[nH]c1=O [Compound 2d, 5-Allyl-6-benzyl-2-(hexylthio)pyrimidin-4(3H)-one]",35,,,153 to 155,IC50 (HIV-1): 7 µM
"C=CCSc1nc(Cc2ccccc2)c(CC=C)c(=O)[nH]1 [Compound 2e, 5-Allyl 6-benzyl-2-(allylthio)pyrimidin-4(3H)-one]",25,,,114 to 116,IC50 (HIV-1): 2.5 µM; EC50 (HIV-1): 2.5 µM
"C=CCc1c(Cc2ccccc2)nc(SCCOCOC)[nH]c1=O [Compound 2f, 5-Allyl-6-benzyl-2-(2-(methoxymethoxy)ethylthio)pyrimidin-4(3H)-one]",,,,188 to 190,
"C=CCc1c(Cc2ccccc2)nc(SCCOCOCCBr)[nH]c1=O [Compound 2g, 5-Allyl-6-benzyl-2-(2-((2-bromoethoxy)methoxy)ethylthio)pyrimidin-4(3H)-one]",,,,192 to 194,
"C=CCc1c(Cc2ccccc2)nc(SCC(C)C)[nH]c1=O [Compound 2h, 5-Allyl-6-benzyl-2-(isobutylthio)pyrimidin-4(3H)-one]",> 100,1,>100,134 to 136,
"C=CCc1c(Cc2ccccc2)nc(SCC(CC)CC)[nH]c1=O [Compound 2i, 5-Allyl-6-benzyl-2-(2-ethylbutylthio)pyrimidin-4(3H)-one]",,,,141 to 143,
"C=CCc1c(Cc2ccccc2)nc(SC2CCCC2)[nH]c1=O [Compound 2j, 5-Allyl 6-benzyl-2-(cyclopentylthio)pyrimidin-4(3H)-one]",> 100,2.6,,,EC50 (HIV-1): 2.6 µM
"C=CCc1c(Cc2ccccc2)nc(SC2CCOC2=O)[nH]c1=O (stereo not shown) [Compound 2k, 5-Allyl-6-benzyl-2-(tetrahydro-2-oxofuran-3-ylthio)pyrimidin-4(3H)-one]",,,,153 to 155,activity against HIV-1 replication (in words) (HIV-1): inactive
"C=CCc1c(Cc2ccccc2)nc(SCC(=O)OC)[nH]c1=O [Compound 3a, 5-Allyl-6-benzyl-2-(methylacetatethio)pyrimidin-4(3H)-one]",> 100,35,>2,117 to 119,
"C=CCc1c(Cc2ccccc2)nc(SCC(=O)OCC)[nH]c1=O [Compound 3b, 5-Allyl-6-benzyl-2-(ethylacetatethio)pyrimidin-4(3H)-one]",,,,118 to 120,activity against HIV-1 replication (in words) (HIV-1): inactive
"C=CCc1c(Cc2ccccc2)nc(SCC(=O)NC)[nH]c1=O [Compound 4, 2-(5-Allyl-4-benzyl-1,6-dihydro-6-oxopyrimidin-2-ylthio)-N-methylacetamide]",,,,,activity against HIV-1 replication (in words) (HIV-1): inactive
"C=CCc1c(Cc2ccccc2)nc(SC2CCCCC2)[nH]c1=O [Compound 6, 5-Allyl 6-benzyl-2-(cyclohexylthio)pyrimidin-4(3H)-one]",,,,138 to 140,
"O=c1[nH]c([S+]([O-])C2CCCCC2)nc(Cc2ccccc2)c1CC1CO1 (stereo not shown) [Compound 7, 6-Benzyl-2-(cyclohexylsulfinyl)-5-((oxiran-2-yl)methyl)pyrimidin-4(3H)-one]",,,,190 to 192,
"C=CCc1c(Cc2ccccc2)nc(SC2CCCCC2)[nH]c1=S [Compound 8, 5-Allyl-6-benzyl-2-(cyclohexylthio)pyrimidine-4(3H)-thione]",> 100,3.9,>25,143 to 145,
"C=CCc1c(Cc2ccccc2)nc(SCC(OCC)OCC)[nH]c1=O [Compound 9, 5-Allyl 6-benzyl-2-(2,2-diethoxyethylthio)pyrimidin-4(3H)-one]",,,,156 to 158,activity against HIV-1 replication (in words) (HIV-1): inactive
"C=CCc1c(Cc2ccccc2)n2c(nc1=O)SCC2OCC (stereo not shown) [Compound 10, 6-Allyl-5-benzyl-3-ethoxy-2,3-dihydrothiazolo[3,2-a]pyrimidin-7-one]",,,,162 to 164,
"C=CCc1c(Cc2ccccc2)nc(SCSC)[nH]c1=O [Compound 11a, 2-((Methylthio)methylthio)-5-allyl-6-benzylpyrimidin-4(3H)-one]",> 100,3.16,>31,218 to 220,
"C=CCc1c(Cc2ccccc2)nc(SCOCC)[nH]c1=O [Compound 11b, 5-Allyl-6-benzyl-2-(ethoxymethylthio)pyrimidin-4(3H)-one]",,,,142 to 144,
"C=CCc1c(Cc2ccccc2)nc(SCCCO)[nH]c1=O [Compound 11c, 2-(3-Hydroxypropylthio)-5-allyl-6-benzylpyrimidin-4(3H)-one]",> 100,0.32,>312,123 to 125,EC50 (HIV-1): 0.32 µM
"CCOCn1c(Cc2ccccc2)c(C(C)C)c(=O)[nH]c1=O [MKC-442, 6-benzyl-1-(ethoxymethyl)-5-isopropylpyrimidine-2,4-dione, reference compound]",141,0.005,"28,000",,
